How the values were obtained:
[1] = target: L-lectin module of SraP (Staphylococcus aureus, UniProt Q2FUW1); experiment: SPR (Biacore […]), steady state, […] Langmuir fit; format: binding; details: 10 mM HEPES pH 7.5, 150 mM NaCl, 0.005% Tween 20, 25 °C; protein immobilised on CM5 chip; Neu5Ac 0.12-10 mM
[2] = target: the molecule itself; experiment: SEC; Superdex 75 column, CDHL-1&2 against protein markers of 67, 44, 25, 17 and 13.7 kDa

Sequence of L-lectin module of SraP (Q2FUW1 245-491): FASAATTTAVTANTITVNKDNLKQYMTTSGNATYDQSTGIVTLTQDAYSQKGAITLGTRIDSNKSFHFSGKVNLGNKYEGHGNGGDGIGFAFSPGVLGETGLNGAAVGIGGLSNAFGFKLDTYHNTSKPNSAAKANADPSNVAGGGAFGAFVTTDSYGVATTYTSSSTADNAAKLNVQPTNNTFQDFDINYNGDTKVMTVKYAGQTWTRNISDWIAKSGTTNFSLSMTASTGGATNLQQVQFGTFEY

Molecule	Kd [1]	stoichiometry N [2]
CC(=O)N[C@H]1[C@H]([C@H](O)[C@H](O)CO)OC(O)(C(=O)O)C[C@@H]1O (some centres unmarked) [N-acetylneuraminic acid]	540 µM	
CDHL-1&2 (tandem cadherin-like modules of SraP, Ala576–Asn751) (domain or fragment, modules CDHL-1 and CDHL-2, residues Ala576–Asn751; Lacks the two Ca-2 coordinating residues Asp573 and Lys575; also called CDHL-1&2 modules; tandem CDHL modules; source: E. coli BL21, purified (Ni-NTA, Superdex 200 or Superdex 75)) APTVTVGNQTIEVGKTMNPIVLTTTDNGTGTVTNTVTGLPSGLSYDSATNSIIGTPTKIGQSTVTVVSTDQANNKSTTTFTINVVDTTAPTVTPIGDQSSEVYSPISPIKIATQDNSGNAVTNTVTGLPSGLTFDSTNNTISGTPTNIGTSTISIVSTDASGNKTTTTFKYEVTRN		2

From paper PMC4047093, “Structural Insights into SraP-Mediated Staphylococcus aureus Adhesion to Host Cells” (PLoS Pathogens, 2014)
